Laboratory results: US7629344B2, “3-(imidazolyl)-pyrazolo[3,4-b]pyridines” (ChemoCentryx, Inc., priority 2007, dated 2009)

System: not given
Experiment: not given
Conditions: not given
In the case of `COc1cc(N2CCN(C(=O)Cn3nc(-c4ncc[nH]4)c4cccnc43)CC2)ccc1Cl` [1.016, 1-[4-(4-Chloro-3-methoxy-phenyl)-piperazin-1-yl]-2-[3-(1H-imidazol-2-yl)-pyrazolo[3,4-b]pyridin-1-yl]-ethanone], the melting point is reported as 149 to 152 °C.

Target: T1, CCR1 (Homo sapiens, UniProt P32246)
T1 construct: host or cells: THP-1 cells or freshly isolated monocytes
T1 sequence (P32246 1-355): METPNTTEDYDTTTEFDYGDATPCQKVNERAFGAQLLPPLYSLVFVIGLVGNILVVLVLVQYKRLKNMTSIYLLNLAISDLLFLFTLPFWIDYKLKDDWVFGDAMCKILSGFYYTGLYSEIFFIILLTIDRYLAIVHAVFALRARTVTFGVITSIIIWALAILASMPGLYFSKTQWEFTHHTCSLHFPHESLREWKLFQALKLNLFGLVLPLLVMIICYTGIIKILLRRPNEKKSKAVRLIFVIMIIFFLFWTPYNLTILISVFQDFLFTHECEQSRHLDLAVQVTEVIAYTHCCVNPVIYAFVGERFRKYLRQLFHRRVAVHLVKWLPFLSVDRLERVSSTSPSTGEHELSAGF
Experiment: Chemotaxis assay (inhibition of CCR1 mediated migration)
Format: cell-based
Conditions: THP-1 or monocyte cells; CCR1 chemokine ligand (MIP-1α, CCL15/Leukotactin); 1-2 hours at 37° C.
Description: THP-1 cells were obtained from ATCC (TIB-202) and cultured as a suspension in RPMI-1640 medium supplemented with 2 mM L-glutamine, 1.5 g/L sodium bicarbonate, 4.5 g/L glucose, 10 mM HEPES, 1 mM sodium pyruvate, 0.05% 2-mercaptoethanol and 10% FBS. Cells were grown under 5% CO2/95% air, 100% humidity at 37° C. and subcultured twice weekly at 1:5 (cells were cultured at a density range of 2×10^5 to 2×10^6 cells/mL) and harvested at 1×10^6 cells/mL. THP-1 cells express CCR1 and can be used in CCR1 binding and functional assays. • 2. Chemotaxis Assays
Chemotaxis assays were performed using 5 μm pore polycarbonate, polyvinylpyrrolidone-coated filters in 96-well chemotaxis chambers (Neuroprobe; Gaithersburg, Md.) using chemotaxis buffer (Hank's balanced salt solution (HBSS) and 1% FBS). CCR1 chemokine ligands (i.e., MIP-1α, CCL15/Leukotactin; R&D Systems; Minneapolis, Minn.) are use to evaluate compound mediated inhibition of CCR1 mediated migration. Other chemokines (i.e., SDF-1α; R&D Systems; Minneapolis, Minn.) are used as specificity controls. The lower chamber was loaded with 29 μl of chemokine (i.e., 0.1 nM CCL15/Leukotactin) and varying amounts of compound; the top chamber contained 100,000 THP-1 or monocyte cells in 20 μl. The chambers were incubated 1-2 hours at 37° C., and the number of cells in the lower chamber quantified either by direct cell counts in five high powered fields per well or by the CyQuant assay (Molecular Probes), a fluorescent dye method that measures nucleic acid content and microscopic observation. • B. Identification of Inhibitors of CCR1
One of the primary functions of chemokines is their ability to mediate the migration of chemokine receptor-expressing cells, such as white blood cells. To confirm that a compound of interest inhibited not only CCR1 specific binding and signaling (at least as determined by calcium mobilization assays), but also CCR1 mediated migration, a chemotaxis assay was employed. THP-1 myelomonocytic leukemia cells, which resemble monocytes, as wells as freshly isolated monocytes, were used as targets for chemoattraction by CCR1 chemokine ligands (i.e., MIP-1α, CCL15/leukotactin). Cells were placed in the top compartment of a microwell migration chamber, while MIP-1α (or other potent CCR1 chemokine ligand) and increasing concentrations of a compound of interest was loaded in the lower chamber. […] In this assay, the amount of compound was varied; while cell number and chemokine agonist concentrations were held constant. After the chemotaxis chambers were incubated 1-2 hours at 37° C., the responding cells in the lower chamber were quantified by labeling with the CyQuant assay (Molecular Probes), a fluorescent dye method that measures nucleic acid content, and by measuring with a Spectrafluor Plus (Tecan). The computer program Prism from GraphPad, Inc. (San Diego, Calif.) was used to calculate IC50 values. IC50 values are those compound concentrations required to inhibit the number of cells responding to a CCR1 agonist by 50%. • 1. In Vivo Efficacy • a) Rabbit Model of Destructive Joint Inflammation
With `CCOc1cc(N2CCN(C(=O)Cn3nc(-c4ncc[nH]4)c4cccnc43)CC2)c(F)cc1Cl` [1.001, 1-[4-(4-Chloro-5-ethoxy-2-fluorophenyl)piperazin-1-yl]-2-[3-(1H-imidazol-2-yl)-pyrazolo[3,4-b]pyridin-1-yl]ethanone] the IC50 was ≤ 100 nM.
In the case of `O=C(Cn1nc(-c2ncc[nH]2)c2cccnc21)N1CCN(c2cc(OCCF)c(Cl)cc2F)CC1` [1.002, 1-{4-[4-Chloro-2-fluoro-5-(2-fluoroethoxy)-phenyl]piperazin-1-yl}-2-[3-(1H-imidazol-2-yl)-pyrazolo[3,4-b]pyridin-1-yl]ethanone], the IC50 is reported as ≤ 100 nM.
For `CCOc1cc(N2CCN(C(=O)Cn3nc(-c4ncc[nH]4)c4cccnc43)CC2)ccc1Cl` [1.003, 1-[4-(4-Chloro-3-ethoxyphenyl)piperazin-1-yl]-2-[3-(1H-imidazol-2-yl)pyrazolo[3,4-b]pyridin-1-yl]ethanone], the IC50 was ≤ 100 nM.
For `COc1cc(N2CCN(C(=O)Cn3nc(-c4ncc[nH]4)c4cccnc43)CC2)c(F)cc1Cl` [1.004, 1-[4-(4-Chloro-2-fluoro-5-methoxyphenyl)piperazin-1-yl]-2-[3-(1H-imidazol-2-yl)-pyrazolo[3,4-b]pyridin-1-yl]ethanone], the IC50 was ≤ 100 nM.
For `COc1cc(N2CCN(C(=O)Cn3nc(-c4ncc[nH]4)c4cccnc43)[C@@H](C)C2)ccc1Cl` [1.005, 1-[(S)-4-(4-Chloro-3-methoxyphenyl)-2-methylpiperazin-1-yl]-2-[3-(1H-imidazol-2-yl)-pyrazolo[3,4-b]pyridin-1-yl]ethanone], the IC50 was ≤ 100 nM.
For `COc1cc(N2CCN(C(=O)Cn3nc(-c4ncc[nH]4)c4cccnc43)[C@@H](C)C2)c(F)cc1Cl` [1.006, 1-[(S)-4-(4-Chloro-2-fluoro-5-methoxyphenyl)-2-methylpiperazin-1-yl]-2-[3-(1H-imidazol-2-yl)pyrazolo[3,4-b]pyridin-1-yl]ethanone], the IC50 was ≤ 100 nM.
With `COc1cc(N2CCN(C(=O)Cn3nc(-c4ncc[nH]4)c4cccnc43)C[C@H]2C)ccc1Cl` [1.007, 1-[(R)-4-(4-Chloro-3-methoxyphenyl)-3-methylpiperazin-1-yl]-2-[3-(1H-imidazol-2-yl)-pyrazolo[3,4-b]pyridin-1-yl]ethanone] the IC50 was ≤ 100 nM.
In the case of `COc1cc(N2CCN(C(=O)Cn3nc(-c4ncc[nH]4)c4cccnc43)C[C@@H]2C)ccc1Cl` [1.008, 1-[(S)-4-(4-Chloro-3-methoxyphenyl)-3-methylpiperazin-1-yl]-2-[3-(1H-imidazol-2-yl)-pyrazolo[3,4-b]pyridin-1-yl]ethanone], the IC50 is reported as ≤ 100 nM.
With `COc1cc(N2CCN(C(=O)Cn3nc(-c4ncc[nH]4)c4cccnc43)[C@H](C)C2)ccc1Cl` [1.009, 1-[(R)-4-(4-Chloro-3-methoxyphenyl)-2-methylpiperazin-1-yl]-2-[3-(1H-imidazol-2-yl)-pyrazolo[3,4-b]pyridin-1-yl]ethanone] the IC50 was ≤ 100 nM.
With `CCOc1cc(N2CCN(C(=O)Cn3nc(-c4ncc[nH]4)c4cccnc43)[C@@H](C)C2)ccc1Cl` [1.010, 2-(3-(1H-imidazol-2-yl)-1H-pyrazolo[3,4-b]pyridin-1-yl)-1-((S)-4-(4-chloro-3-ethoxyphenyl)-2-methylpiperazin-1-yl)ethanone] the IC50 was ≤ 100 nM.
With `O=C(Cn1nc(-c2ncc[nH]2)c2cccnc21)N1CCN(c2ccc(Cl)c(OCCF)c2)CC1` [1.011, 2-(3-(1H-imidazol-2-yl)-1H-pyrazolo[3,4-b]pyridin-1-yl)-1-(4-(3-(2-fluoroethoxy)-4-chlorophenyl)piperazin-1-yl)ethanone] the IC50 was ≤ 100 nM.
For `C[C@H]1CN(c2ccc(Cl)c(OCCF)c2)CCN1C(=O)Cn1nc(-c2ncc[nH]2)c2cccnc21` [1.012, 2-(3-(1H-imidazol-2-yl)-1H-pyrazolo[3,4-b]pyridin-1-yl)-1-((S)-4-(3-(2-fluoroethoxy)-4-chlorophenyl)-2-methylpiperazin-1-yl)ethanone], the IC50 was ≤ 100 nM.
In the case of `Cc1cc(N2CCN(C(=O)Cn3nc(-c4ncc[nH]4)c4cccnc43)CC2)ccc1Cl` [1.013, 1-[4-(4-Chloro-3-methyl-phenyl)-piperazin-1-yl]-2-[3-(1H-imidazol-2-yl)-pyrazolo[3,4-b]pyridin-1-yl]-ethanone], the IC50 is reported as ≤ 100 nM.
In the case of `O=C(Cn1nc(-c2ncc[nH]2)c2cccnc21)N1CCN(c2ccc(Cl)c(C(F)(F)F)c2)CC1` [1.014, 1-[4-(4-Chloro-3-trifluoromethyl-phenyl)-piperazin-1-yl]-2-[3-(1H-imidazol-2-yl)-pyrazolo[3,4-b]pyridin-1-yl]-ethanone], the IC50 is reported as > 100 nM.
With `O=C(Cn1nc(-c2ncc[nH]2)c2cccnc21)N1CCN(c2ccc(Cl)c(OC(F)(F)F)c2)CC1` [1.015, 1-[4-(4-Chloro-3-trifluoromethoxy-phenyl)-piperazin-1-yl]-2-[3-(1H-imidazol-2-yl)-pyrazolo[3,4-b]pyridin-1-yl]-ethanone] the IC50 was > 100 nM.
In the case of `COc1cc(N2CCN(C(=O)Cn3nc(-c4ncc[nH]4)c4cccnc43)CC2)ccc1Cl` [1.016, 1-[4-(4-Chloro-3-methoxy-phenyl)-piperazin-1-yl]-2-[3-(1H-imidazol-2-yl)-pyrazolo[3,4-b]pyridin-1-yl]-ethanone], the IC50 is reported as ≤ 100 nM.
For `COc1cc(N2CCN(C(=O)Cn3nc(-c4nccn4C)c4cccnc43)CC2)ccc1Cl` [1.017, 1-[4-(4-Chloro-3-methoxy-phenyl)-piperazin-1-yl]-2-[3-(1-methyl-1H-imidazol-2-yl)-pyrazolo[3,4-b]pyridin-1-yl]-ethanone], the IC50 was ≤ 100 nM.

System: Female New Zealand rabbits
Experiment: Rabbit model of destructive joint inflammation (rabbit LPS study)
Format: in vivo
Conditions: intra-articular LPS (10 ng) in both knees; dosed orally 2 hours before and 4 hours after LPS; knees lavaged sixteen hours after LPS
Description: A rabbit LPS study was conducted essentially as described in Podolin, et al. J. Immunol. 169(11):6435-6444 (2002). Female New Zealand rabbits (approximately 2 kilograms) were treated intra-articularly in both knees with LPS (10 ng). The compound of interest, for example 1.016, (formulated in 1% methocel) or vehicle (1% methocel) was dosed orally at a 5 ml/kg dose volume at two times (2 hours before the intra-articular LPS injection and 4 hours after the intra-articular LPS injection). Sixteen hours after the LPS injection, knees were lavaged and cells counts were performed. Beneficial effects of treatment were determined by reduction in the number of inflammatory cells recruited to the inflamed synovial fluid of the knee joints.
In the case of `COc1cc(N2CCN(C(=O)Cn3nc(-c4ncc[nH]4)c4cccnc43)CC2)ccc1Cl` [1.016, 1-[4-(4-Chloro-3-methoxy-phenyl)-piperazin-1-yl]-2-[3-(1H-imidazol-2-yl)-pyrazolo[3,4-b]pyridin-1-yl]-ethanone], the “number of inflammatory cells recruited to the inflamed synovial fluid of the knee joints” value is reported as “significant reduction”.

System: not listed separately
Experiment: Pharmacokinetic tests conducted in animals
Format: in vivo
Conditions: over related compounds (U.S. Publication No. 2007/0010524A1)
In the case of `COc1cc(N2CCN(C(=O)Cn3nc(-c4ncc[nH]4)c4cccnc43)CC2)ccc1Cl` [1.016, 1-[4-(4-Chloro-3-methoxy-phenyl)-piperazin-1-yl]-2-[3-(1H-imidazol-2-yl)-pyrazolo[3,4-b]pyridin-1-yl]-ethanone], the AUC is reported as “increased”, the Cmax is reported as “increased” and the oral bioavailability is reported as “improved”.
